Measurements reported in ChEMBL document CHEMBL1201862, “PubChem BioAssay data set” (2004).
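These data come from cells grown in 96-well plates and exposed to compound for 48 hours at five concentrations. The concentration for 50% growth inhibition is given as GI50.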 The source made the active and inactive calls. No stated cut-off is given here; in the data, active = GI50 up to about 1.1 µM and inactive = higher.

Tests used:
Experiment in all cases: inhibition of tumour cell growth, NCI panel, 48 h
[1] = system: RXF 631
[2] = system: HOP-18
[3] = system: XF498
[4] = system: DMS-273
[5] = system: DMS-114
[6] = system: M19-MEL
[7] = system: DLD-1
[8] = system: KM-20L2
[9] = system: SNB-78

| SMILES | GI50 [1] | GI50 [2] | GI50 [3] | GI50 [4] | GI50 [5] | GI50 [6] | GI50 [7] | GI50 [8] | GI50 [9] |
| --- | --- | --- | --- | --- | --- | --- | --- | --- | --- |
| N#CC(N)(C(=O)C(=O)NCCCNC(=O)C(=O)C(N)(C#N)c1ccc(Cl)cc1)c1ccc(Cl)cc1 (configuration not stated) | > 100 µM (inactive) | > 100 µM (inactive) | > 100 µM (inactive) | > 100 µM (inactive) | > 100 µM (inactive) | > 100 µM (inactive) | > 100 µM (inactive) | > 100 µM (inactive) | > 100 µM (inactive) |
| CC1=CCC2(C#N)CCC1C2=O (configuration not stated) | > 100 µM (inactive) | – | > 100 µM (inactive) | – | > 100 µM (inactive) | > 100 µM (inactive) | > 100 µM (inactive) | > 100 µM (inactive) | > 100 µM (inactive) |
| COc1ccccc1NC(=O)CC(=O)n1nc(-c2ccccc2)c(/N=N/c2ccccc2[N+](=O)[O-])c1-c1ccccc1 | > 100 µM (inactive) | > 100 µM (inactive) | > 100 µM (inactive) | > 100 µM (inactive) | 25.6 µM (inactive) | 51.2 µM (inactive) | 42.3 µM (inactive) | > 100 µM (inactive) | > 100 µM (inactive) |
| CCOc1ccc(/N=N/c2c(-c3ccccc3)nn(C(=O)CC(=O)Nc3cccc(C)c3)c2-c2ccccc2)cc1 | 27.5 µM (inactive) | > 100 µM (inactive) | 95.1 µM (inactive) | > 100 µM (inactive) | 30.4 µM (inactive) | – | 63.2 µM (inactive) | 85.5 µM (inactive) | > 100 µM (inactive) |
| COC(=O)CC(=O)NCC1=CCC(=O)CC1 | – | – | > 100 µM (inactive) | > 100 µM (inactive) | > 100 µM (inactive) | > 100 µM (inactive) | > 100 µM (inactive) | – | > 100 µM (inactive) |
| NS(=O)(=O)c1ccc(NC(=O)COC(=O)c2cccc3c(=O)c4ccccc4[nH]c23)cc1 | 33.1 µM (inactive) | 20.1 µM (inactive) | – | 37.2 µM (inactive) | 18.9 µM (inactive) | 31.3 µM (inactive) | 45 µM (inactive) | > 100 µM (inactive) | 17.4 µM (inactive) |
| COc1ccc(CCCN2c3ccccc3Sc3ccccc32)cc1 | – | > 100 µM (inactive) | > 100 µM (inactive) | 33.5 µM (inactive) | 28.1 µM (inactive) | – | > 100 µM (inactive) | 53.8 µM (inactive) | 91.8 µM (inactive) |
| O=C1C=CC(=O)N1Nc1ccc([N+](=O)[O-])cc1[N+](=O)[O-] | – | – | – | > 100 µM (inactive) | > 100 µM (inactive) | > 89.7 µM (inactive) | > 100 µM (inactive) | > 100 µM (inactive) | > 100 µM (inactive) |
| C[P+](C)(C)C | > 100 µM (inactive) | > 100 µM (inactive) | > 100 µM (inactive) | – | > 100 µM (inactive) | > 100 µM (inactive) | > 100 µM (inactive) | > 100 µM (inactive) | > 100 µM (inactive) |
| C1CCN(c2nsc(N3CCCCC3)n2)CC1 | > 100 µM (inactive) | > 100 µM (inactive) | – | > 100 µM (inactive) | > 100 µM (inactive) | > 100 µM (inactive) | > 100 µM (inactive) | > 100 µM (inactive) | > 100 µM (inactive) |
| Nc1nc(-c2ccccc2)cc(-c2cc(Cl)ccc2O)n1 | > 100 µM (inactive) | > 100 µM (inactive) | – | 44.7 µM (inactive) | 55.6 µM (inactive) | – | 98.2 µM (inactive) | > 100 µM (inactive) | > 100 µM (inactive) |
| Clc1ccc2c(c1)[nH]c1c2nc2sccn21 | > 100 µM (inactive) | > 100 µM (inactive) | > 100 µM (inactive) | > 100 µM (inactive) | > 100 µM (inactive) | > 100 µM (inactive) | > 100 µM (inactive) | > 100 µM (inactive) | > 100 µM (inactive) |
| CC1=C[C@H]2C[C@@]3(C)O[C@@H]([C@]4(C)CC[C@H]([C@@H](C)C(=O)O)OO4)CC3C(C)(C)[C@H]2CC1 (some centres not stated) | – | – | 0.0573 µM (active) | 0.526 µM (active) | 1.56 µM (inactive) | 1.67 µM (inactive) | 0.916 µM (active) | 2.17 µM (inactive) | 1.08 µM (active) |
| CC(C(=O)Oc1ccc2ccccc2c1-c1c(O)ccc2ccccc12)c1ccccc1 (configuration not stated) | 17.2 µM (inactive) | – | 14.2 µM (inactive) | > 10 µM (inactive) | 12.3 µM (inactive) | 15.5 µM (inactive) | – | – | 15.4 µM (inactive) |
| CC1=C(C(=O)Nc2ccc([N+](=O)[O-])cc2)C(c2ccco2)C(C(=O)Nc2ccc([N+](=O)[O-])cc2)=C(C)N1 | 35.8 µM (inactive) | – | 0.6 µM (active) | – | 5 µM (inactive) | 13.1 µM (inactive) | 9.68 µM (inactive) | 17.4 µM (inactive) | 11.9 µM (inactive) |
